Reference: PubChem BioAssay (NCI)
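How tested: cells in 96-well plates exposed to compound for 48 hours at five concentrations. Definition used: TGI = concentration required for complete inhibition of growth.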 Where a SMILES comes first, the peptide text is derived from it. The star is where a group is joined. Boc = CC(C)(C)OC(=O)*; OSu = O=C1CCC(=O)N1O*

Legend:
Assay in all cases: growth of human tumour cells (NCI), 48 h
HOP-62 NSCLC = tested on: HOP-62 NSCLC
SNB-19 CNS = tested on: SNB-19 CNS
A549 NSCLC = tested on: A549 NSCLC
HCC-2998 colon = tested on: HCC-2998 colon
UACC-62 melanoma = tested on: UACC-62 melanoma
U251 CNS = tested on: U251 CNS
SK-MEL-2 melanoma = tested on: SK-MEL-2 melanoma
HT29 colon = tested on: HT29 colon
SK-MEL-28 melanoma = tested on: SK-MEL-28 melanoma
SK-MEL-5 melanoma = tested on: SK-MEL-5 melanoma
EKVX NSCLC = tested on: EKVX NSCLC
K-562 leukemia = tested on: K-562 leukemia
TK-10 renal = tested on: TK-10 renal
RXF 393 renal = tested on: RXF 393 renal
MDA-MB-231 breast = tested on: MDA-MB-231 breast
MDA-N = tested on: MDA-N
UACC-257 melanoma = tested on: UACC-257 melanoma
A498 renal = tested on: A498 renal
ACHN renal = tested on: ACHN renal
SN12C renal = tested on: SN12C renal
OVCAR-5 ovarian = tested on: OVCAR-5 ovarian
PC-3 prostate = tested on: PC-3 prostate
MCF7 breast = tested on: MCF7 breast
786-0 renal = tested on: 786-0 renal
M14 melanoma = tested on: M14 melanoma
RPMI-8226 leukemia = tested on: RPMI-8226 leukemia
HL-60(TB) leukemia = tested on: HL-60(TB) leukemia
COLO 205 colon = tested on: COLO 205 colon
CCRF-CEM leukemia = tested on: CCRF-CEM leukemia
SW-620 colon = tested on: SW-620 colon
BT-549 breast = tested on: BT-549 breast
HS 578T breast = tested on: HS 578T breast
SNB-75 CNS = tested on: SNB-75 CNS
KM12 colon = tested on: KM12 colon
NCI-H460 lung = tested on: NCI-H460 lung
UO-31 renal = tested on: UO-31 renal
HOP-92 NSCLC = tested on: HOP-92 NSCLC
HCT-15 colon = tested on: HCT-15 colon
SR leukemia = tested on: SR leukemia
MOLT-4 leukemia = tested on: MOLT-4 leukemia
OVCAR-8 ovarian = tested on: OVCAR-8 ovarian
HCT-116 colon = tested on: HCT-116 colon
IGROV1 ovarian = tested on: IGROV1 ovarian
NCI-H23 lung = tested on: NCI-H23 lung
MALME-3M melanoma = tested on: MALME-3M melanoma
NCI-H226 lung = tested on: NCI-H226 lung
T-47D breast = tested on: T-47D breast
NCI-H522 lung = tested on: NCI-H522 lung
CAKI-1 renal = tested on: CAKI-1 renal
OVCAR-3 ovarian = tested on: OVCAR-3 ovarian
SF-295 CNS = tested on: SF-295 CNS
DU-145 prostate = tested on: DU-145 prostate
NCI/ADR-RES ovarian = tested on: NCI/ADR-RES ovarian
SF-539 CNS = tested on: SF-539 CNS
SF-268 CNS = tested on: SF-268 CNS
SK-OV-3 ovarian = tested on: SK-OV-3 ovarian
LOX IMVI melanoma = tested on: LOX IMVI melanoma
MDA-MB-435 = tested on: MDA-MB-435
OVCAR-4 ovarian = tested on: OVCAR-4 ovarian

SMILES: CC(C)(C)OC(=O)NC(Cc1ccc(O)cc1)C(=O)NC(CCCCN)C(=O)NC(Cc1ccc(O)cc1)C(=O)NC(CCCCN)C(=O)ON1C(=O)CCC1=O (stereo not drawn) (Boc-YKYK-OSu; configuration not given here)
- TGI (HOP-62 NSCLC): > 100 µM
- TGI (SNB-19 CNS): > 100 µM
- TGI (A549 NSCLC): > 100 µM
- TGI (HCC-2998 colon): > 100 µM
- TGI (UACC-62 melanoma): > 100 µM
- TGI (U251 CNS): > 100 µM
- TGI (SK-MEL-2 melanoma): > 100 µM
- TGI (HT29 colon): > 100 µM
- TGI (SK-MEL-28 melanoma): > 100 µM
- TGI (SK-MEL-5 melanoma): > 100 µM
- TGI (EKVX NSCLC): > 100 µM
- TGI (K-562 leukemia): > 100 µM
- TGI (TK-10 renal): > 100 µM
- TGI (RXF 393 renal): > 100 µM
- TGI (MDA-MB-231 breast): > 100 µM
- TGI (MDA-N): > 100 µM
- TGI (UACC-257 melanoma): > 100 µM
- TGI (A498 renal): > 100 µM
- TGI (ACHN renal): > 100 µM
- TGI (SN12C renal): > 100 µM
- TGI (OVCAR-5 ovarian): > 100 µM
- TGI (PC-3 prostate): > 100 µM
- TGI (MCF7 breast): > 100 µM
- TGI (786-0 renal): > 100 µM
- TGI (M14 melanoma): > 100 µM
- TGI (RPMI-8226 leukemia): > 100 µM
- TGI (HL-60(TB) leukemia): > 100 µM
- TGI (COLO 205 colon): > 100 µM
- TGI (CCRF-CEM leukemia): > 100 µM
- TGI (SW-620 colon): > 100 µM
- TGI (BT-549 breast): > 100 µM
- TGI (HS 578T breast): > 100 µM
- TGI (SNB-75 CNS): > 100 µM
- TGI (KM12 colon): > 100 µM
- TGI (NCI-H460 lung): > 100 µM
- TGI (UO-31 renal): > 100 µM
- TGI (HOP-92 NSCLC): > 100 µM
- TGI (HCT-15 colon): > 100 µM
- TGI (SR leukemia): > 100 µM
- TGI (MOLT-4 leukemia): > 100 µM
- TGI (OVCAR-8 ovarian): > 100 µM
- TGI (HCT-116 colon): > 100 µM
- TGI (IGROV1 ovarian): > 100 µM
- TGI (NCI-H23 lung): > 100 µM
- TGI (MALME-3M melanoma): > 100 µM
- TGI (NCI-H226 lung): > 100 µM
- TGI (T-47D breast): > 100 µM

SMILES: CCCCN(CC)c1nc(C)nc2c1c(C)c(C)n2-c1c(C)cc(C)cc1C
- TGI (HOP-62 NSCLC): 32.9 µM
- TGI (SNB-19 CNS): 33.3 µM
- TGI (A549 NSCLC): 30.2 µM
- TGI (U251 CNS): 23.9 µM
- TGI (SK-MEL-2 melanoma): 25.7 µM
- TGI (HT29 colon): 22.6 µM
- TGI (SK-MEL-28 melanoma): 31.5 µM
- TGI (SK-MEL-5 melanoma): 17.6 µM
- TGI (EKVX NSCLC): 27.5 µM
- TGI (K-562 leukemia): 29.8 µM
- TGI (TK-10 renal): 31.1 µM
- TGI (RXF 393 renal): 19.7 µM
- TGI (NCI-H522 lung): 25.7 µM
- TGI (MDA-MB-231 breast): 29.1 µM
- TGI (MDA-N): 38.6 µM
- TGI (CAKI-1 renal): 30.2 µM
- TGI (OVCAR-3 ovarian): 26.6 µM
- TGI (SF-295 CNS): 28 µM
- TGI (UACC-257 melanoma): 26.9 µM
- TGI (DU-145 prostate): 30.2 µM
- TGI (A498 renal): 31.3 µM
- TGI (ACHN renal): 28.1 µM
- TGI (NCI/ADR-RES ovarian): 27.6 µM
- TGI (SN12C renal): 40.9 µM
- TGI (OVCAR-5 ovarian): 28.8 µM
- TGI (PC-3 prostate): 26.6 µM
- TGI (786-0 renal): 30.5 µM
- TGI (SF-539 CNS): 6.46 µM
- TGI (M14 melanoma): 35.6 µM
- TGI (RPMI-8226 leukemia): 30.1 µM
- TGI (HL-60(TB) leukemia): 19.3 µM
- TGI (SF-268 CNS): 31.8 µM
- TGI (COLO 205 colon): 32.6 µM
- TGI (CCRF-CEM leukemia): 32.7 µM
- TGI (SW-620 colon): 33.4 µM
- TGI (BT-549 breast): 34.3 µM
- TGI (HS 578T breast): 38 µM
- TGI (SNB-75 CNS): 27.4 µM
- TGI (SK-OV-3 ovarian): 32.9 µM
- TGI (KM12 colon): 36.3 µM
- TGI (NCI-H460 lung): 27.5 µM
- TGI (UO-31 renal): 28.9 µM
- TGI (HOP-92 NSCLC): 21.5 µM
- TGI (LOX IMVI melanoma): 30.4 µM
- TGI (HCT-15 colon): 27.6 µM
- TGI (SR leukemia): 31.9 µM
- TGI (MOLT-4 leukemia): 30.1 µM
- TGI (OVCAR-8 ovarian): 28.5 µM
- TGI (MDA-MB-435): 33.3 µM
- TGI (HCT-116 colon): 23.4 µM
- TGI (IGROV1 ovarian): 29.2 µM
- TGI (NCI-H23 lung): 28.2 µM
- TGI (MALME-3M melanoma): 29.6 µM
- TGI (NCI-H226 lung): 30.1 µM
- TGI (T-47D breast): 25.4 µM
- TGI (OVCAR-4 ovarian): 37.9 µM

SMILES: Cc1ccc(S(=O)(=O)N2CCN3C(=O)c4ccccc4C32c2ccc(F)cc2)cc1 (stereo not drawn)
- TGI (HOP-62 NSCLC): > 100 µM
- TGI (SNB-19 CNS): > 100 µM
- TGI (A549 NSCLC): > 100 µM
- TGI (HCC-2998 colon): > 100 µM
- TGI (UACC-62 melanoma): > 100 µM
- TGI (U251 CNS): > 100 µM
- TGI (SK-MEL-2 melanoma): > 100 µM
- TGI (HT29 colon): > 100 µM
- TGI (SK-MEL-28 melanoma): > 100 µM
- TGI (SK-MEL-5 melanoma): 35.2 µM
- TGI (EKVX NSCLC): > 100 µM
- TGI (K-562 leukemia): > 100 µM
- TGI (TK-10 renal): > 100 µM
- TGI (RXF 393 renal): > 100 µM
- TGI (NCI-H522 lung): > 100 µM
- TGI (MDA-MB-231 breast): > 100 µM
- TGI (MDA-N): > 100 µM
- TGI (CAKI-1 renal): > 100 µM
- TGI (OVCAR-3 ovarian): > 100 µM
- TGI (SF-295 CNS): > 100 µM
- TGI (UACC-257 melanoma): > 100 µM
- TGI (DU-145 prostate): > 100 µM
- TGI (A498 renal): 63.5 µM
- TGI (ACHN renal): > 100 µM
- TGI (NCI/ADR-RES ovarian): > 100 µM
- TGI (SN12C renal): > 100 µM
- TGI (OVCAR-5 ovarian): > 100 µM
- TGI (PC-3 prostate): > 100 µM
- TGI (MCF7 breast): > 100 µM
- TGI (786-0 renal): > 100 µM
- TGI (M14 melanoma): > 100 µM
- TGI (RPMI-8226 leukemia): 83.3 µM
- TGI (SF-268 CNS): > 100 µM
- TGI (COLO 205 colon): > 100 µM
- TGI (CCRF-CEM leukemia): 80 µM
- TGI (SW-620 colon): > 100 µM
- TGI (BT-549 breast): > 100 µM
- TGI (HS 578T breast): > 100 µM
- TGI (SNB-75 CNS): > 100 µM
- TGI (SK-OV-3 ovarian): > 100 µM
- TGI (KM12 colon): > 100 µM
- TGI (NCI-H460 lung): > 100 µM
- TGI (UO-31 renal): > 100 µM
- TGI (HCT-15 colon): > 100 µM
- TGI (SR leukemia): 52.8 µM
- TGI (MOLT-4 leukemia): 65.9 µM
- TGI (OVCAR-8 ovarian): > 100 µM
- TGI (MDA-MB-435): > 100 µM
- TGI (HCT-116 colon): > 100 µM
- TGI (IGROV1 ovarian): > 100 µM
- TGI (NCI-H23 lung): > 100 µM
- TGI (MALME-3M melanoma): > 100 µM
- TGI (NCI-H226 lung): > 100 µM
- TGI (T-47D breast): > 100 µM
- TGI (OVCAR-4 ovarian): > 100 µM
